What was measured:
Coq6p-MBP (Coq6p) = target: T1, Coq6p-MBP (Coq6p) (Saccharomyces cerevisiae, UniProt P53318); settings: co-purified cofactor; tetrameric Coq6p-MBP, purified in Tris-HCl pH 7.5
T1 construct: gene COQ6

[1] = target: the molecule itself; experiment: SEC; gel filtration on Superdex 200 10/300 GL calibrated with standards of known molecular mass (Bio-Rad); purified Coq6p-MBP

T1 sequence (P53318 whole entry): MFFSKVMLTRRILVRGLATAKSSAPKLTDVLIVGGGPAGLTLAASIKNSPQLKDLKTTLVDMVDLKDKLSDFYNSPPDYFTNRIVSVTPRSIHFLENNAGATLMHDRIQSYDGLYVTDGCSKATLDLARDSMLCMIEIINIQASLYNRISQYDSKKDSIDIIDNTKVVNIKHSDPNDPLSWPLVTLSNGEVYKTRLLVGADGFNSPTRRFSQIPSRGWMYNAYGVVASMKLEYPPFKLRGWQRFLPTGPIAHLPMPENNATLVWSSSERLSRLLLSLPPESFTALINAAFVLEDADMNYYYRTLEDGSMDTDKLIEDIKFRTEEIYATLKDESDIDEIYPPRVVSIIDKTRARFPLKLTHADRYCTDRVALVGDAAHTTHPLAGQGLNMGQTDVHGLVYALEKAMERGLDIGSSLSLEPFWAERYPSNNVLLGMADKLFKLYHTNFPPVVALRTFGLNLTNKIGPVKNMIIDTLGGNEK

FAD occupancy per monomer (Coq6p-MBP (Coq6p))	Molecule	stoichiometry N [1]
~ 85%	Cc1cc2nc3c(=O)[nH]c(=O)nc-3n(C[C@H](O)[C@H](O)[C@H](O)COP(=O)(O)OP(=O)(O)OC[C@H]3O[C@@H](n4cnc5c(N)ncnc54)[C@H](O)[C@@H]3O)c2cc1C [FAD]	–
–	Coq6p-MBP fusion protein (enzyme, S. cerevisiae, UniProt P53318 18-479, looked up, Coq6p, FAD-dependent monooxygenase of ubiquinone biosynthesis, S. cerevisiae, UniProt P53318; coq6 gene optimised for E. coli and cloned in pMAL-c2X between BamHI and EcoRI downstream of malE; Printed mass of the fusion is 96.3 kDa with an MBP tag of 45 kDa, which would fit the whole 479-residue Coq6p (my surmise); source: E. coli BL21 (DE3) co-transformed with pMALc2x-Coq6p and pGro7 …) ATAKSSAPKLTDVLIVGGGPAGLTLAASIKNSPQLKDLKTTLVDMVDLKDKLSDFYNSPPDYFTNRIVSVTPRSIHFLENNAGATLMHDRIQSYDGLYVTDGCSKATLDLARDSMLCMIEIINIQASLYNRISQYDSKKDSIDIIDNTKVVNIKHSDPNDPLSWPLVTLSNGEVYKTRLLVGADGFNSPTRRFSQIPSRGWMYNAYGVVASMKLEYPPFKLRGWQRFLPTGPIAHLPMPENNATLVWSSSERLSRLLLSLPPESFTALINAAFVLEDADMNYYYRTLEDGSMDTDKLIEDIKFRTEEIYATLKDESDIDEIYPPRVVSIIDKTRARFPLKLTHADRYCTDRVALVGDAAHTTHPLAGQGLNMGQTDVHGLVYALEKAMERGLDIGSSLSLEPFWAERYPSNNVLLGMADKLFKLYHTNFPPVVALRTFGLNLTNKIGPVKNMIIDTLGGNEK	4
